Laboratory results from patent US20020016369A1, “Use of nimesulide for the treatment of psoriasis and psoriatic arhtritis” (priority 2000, published 2002).

Test system: patients affected by psoriatic arthritis
Experimental: Controlled double-blind clinical trials were carried out on patients 18 to 70 years old affected by psoriatic arthritis showing at least three swollen joints, absence of rheumatoid factor and no other rheumatic conditions.
The patients, who received no previous pharmacological treatment with antirheumatic drugs during the three-month pre-study period, were treated for 4 weeks with Nimesulide (100 to 400 mg/day orally or application of a 3% gel twice a day).
At the end of the treatment period, the following parameters were evaluated:
number of tender and swollen joints
skin symptoms evaluated according to the Psoriasis Area Severity Index (PASI)

[1] = patients 18 to 70 years old, 4 weeks, 100 to 400 mg/day orally or 3% gel twice a day

## CS(=O)(=O)Nc1ccc([N+](=O)[O-])cc1Oc1ccccc1 [Nimesulide]
General statement of finding
  action on joint flogosis: beneficial action on joint flogosis
  effect on skin lesions: remarkable improvement of such lesions
[1]
  clinical efficacy in oligopolyarticular psoriatic arthritis: clinically effective in the treatment of oligopolyarticular psoriatic arthritis in a statistically significant way
  toxic or untoward effects (tolerability): no toxic or untoward effect, particularly no gastrointestinal adverse effect
